{
  "source": "BindingDB's records for doi:10.1016/j.ejmech.2017.01.044",
  "about": "(Universidade De Lisboa, 2017)",
  "assay": "Inhibition of human ABCB1 expressed in mouse L5178Y cells assessed as reduction in cell growth after 24 hrs by MTT assay",
  "data": [
    {"compound": "CC[C@@H]1CN(C)[C@H]2Cc3c([nH]c4ccccc34)/C(=N/Nc3ccccc3)C[C@H]1[C@@H]2C(=O)OC", "values": [
      {"measurement": "IC50", "result": 17, "unit": "µM"}
    ]},
    {"compound": "CC[C@H]1CN(C)[C@H]2Cc3c([nH]c4ccccc34)/C(=N/Nc3cnccn3)C[C@H]1[C@@H]2C(=O)OC", "values": [
      {"measurement": "IC50", "result": 84.8, "unit": "µM"}
    ]},
    {"compound": "CC[C@H]1CN(C)[C@H]2Cc3c([nH]c4ccccc34)C(=O)C[C@H]1[C@@H]2C(=O)OC", "values": [
      {"measurement": "IC50", "result": "> 100", "unit": "µM"}
    ]},
    {"compound": "CC[C@@H]1CN(C)[C@H]2Cc3c([nH]c4ccccc34)C(=O)C[C@H]1[C@@H]2C(=O)OC", "values": [
      {"measurement": "IC50", "result": "> 100", "unit": "µM"}
    ]},
    {"compound": "CC[C@@H]1CN(C)[C@H]2Cc3c([nH]c4ccccc34)/C(=N/Nc3cnccn3)C[C@H]1[C@@H]2C(=O)OC", "values": [
      {"measurement": "IC50", "result": "> 100", "unit": "µM"}
    ]},
    {"compound": "CC[C@@H]1CN(C)[C@H]2Cc3c([nH]c4ccccc34)/C(=N/NC(N)=O)C[C@H]1[C@@H]2C(=O)OC", "values": [
      {"measurement": "IC50", "result": "> 100", "unit": "µM"}
    ]},
    {"compound": "CC[C@H]1CN(C)[C@H]2Cc3c([nH]c4ccccc34)/C(=N/NC(=O)OCc3ccc(OC)cc3)C[C@H]1[C@@H]2C(=O)OC", "values": [
      {"measurement": "IC50", "result": 52.3, "unit": "µM"}
    ]},
    {"compound": "CC[C@H]1CN(C)[C@H]2Cc3c([nH]c4ccccc34)/C(=N/NC(=S)NCc3cccnc3)C[C@H]1[C@@H]2C(=O)OC", "values": [
      {"measurement": "IC50", "result": 45.2, "unit": "µM"}
    ]},
    {"compound": "CC[C@H]1CN(C)[C@H]2Cc3c([nH]c4ccccc34)C(=S)C[C@H]1[C@@H]2C(=O)OC", "values": [
      {"measurement": "IC50", "result": 77.9, "unit": "µM"}
    ]},
    {"compound": "CC[C@H]1CN(C)[C@H]2Cc3c([nH]c4ccccc34)[C@@H](O)C[C@H]1[C@@H]2C(=O)OC", "values": [
      {"measurement": "IC50", "result": "> 100", "unit": "µM"}
    ]},
    {"compound": "CC[C@@H]1CN(C)[C@H]2Cc3c([nH]c4ccccc34)[C@@H](O)C[C@H]1[C@@H]2C(=O)OC", "values": [
      {"measurement": "IC50", "result": 83.9, "unit": "µM"}
    ]},
    {"compound": "C/C=C/C(=O)O[C@H]1C[C@@H]2[C@@H](CC)CN(C)[C@@H](Cc3c1[nH]c1ccccc31)[C@H]2C(=O)OC", "values": [
      {"measurement": "IC50", "result": "> 100", "unit": "µM"}
    ]},
    {"compound": "CC[C@@H]1CN(C)[C@H]2Cc3c([nH]c4ccccc34)[C@@H](OC(=O)C34CC5CC(CC(C5)C3)C4)C[C@H]1[C@@H]2C(=O)OC", "values": [
      {"measurement": "IC50", "result": "> 100", "unit": "µM"}
    ]},
    {"compound": "CC[C@H]1CN(C)[C@H]2Cc3c(n(C)c4ccccc34)C(=O)C[C@H]1[C@@H]2C(=O)OC", "values": [
      {"measurement": "IC50", "result": 89.2, "unit": "µM"}
    ]},
    {"compound": "CC[C@H]1CN(C)[C@H]2Cc3c(n(Cc4ccccc4)c4ccccc34)C(=O)C[C@H]1[C@@H]2C(=O)OC", "values": [
      {"measurement": "IC50", "result": 38.1, "unit": "µM"}
    ]},
    {"compound": "CC[C@H]1CN(C)[C@H]2Cc3c(n(CCN(CC)CC)c4ccccc34)C(=O)C[C@H]1[C@@H]2C(=O)OC", "values": [
      {"measurement": "IC50", "result": "> 100", "unit": "µM"}
    ]},
    {"compound": "CC[C@H]1CN(C)[C@H]2Cc3c(n(C(=O)c4cccc(C)c4)c4ccccc34)C(=O)C[C@H]1[C@@H]2C(=O)OC", "values": [
      {"measurement": "IC50", "result": "> 100", "unit": "µM"}
    ]},
    {"compound": "CC[C@H]1CN(C)[C@H]2Cc3c([nH]c4ccccc34)/C(=N/Nc3ccc(Br)cn3)C[C@H]1[C@@H]2C(=O)OC", "values": [
      {"measurement": "IC50", "result": 39.9, "unit": "µM"}
    ]},
    {"compound": "CC[C@@H]1CN(C)[C@H]2Cc3c([nH]c4ccccc34)/C(=N/Nc3ccc(Br)cn3)C[C@H]1[C@@H]2C(=O)OC", "values": [
      {"measurement": "IC50", "result": 37.6, "unit": "µM"}
    ]},
    {"compound": "CC[C@H]1CN(C)[C@H]2Cc3c([nH]c4ccccc34)/C(=N/O)C[C@H]1[C@@H]2C(=O)OC", "values": [
      {"measurement": "IC50", "result": 16.7, "unit": "µM"}
    ]},
    {"compound": "CC[C@@H]1CN(C)[C@H]2Cc3c([nH]c4ccccc34)/C(=N/O)C[C@H]1[C@@H]2C(=O)OC", "values": [
      {"measurement": "IC50", "result": 85.4, "unit": "µM"}
    ]},
    {"compound": "CC[C@H]1CN(C)[C@H]2Cc3c([nH]c4ccccc34)/C(=N/NC(N)=O)C[C@H]1[C@@H]2C(=O)OC", "values": [
      {"measurement": "IC50", "result": "> 100", "unit": "µM"}
    ]},
    {"compound": "CC[C@H]1CN(C)[C@H]2Cc3c([nH]c4ccccc34)/C(=N/Nc3ccccc3)C[C@H]1[C@@H]2C(=O)OC", "values": [
      {"measurement": "IC50", "result": 52.7, "unit": "µM"}
    ]}
  ]
}
